Test results published in US20110166223A1, “METHODS OF INHIBITING FGFR3 SIGNALING” (CEDARS-SINAI MEDICAL CENTER, priority 2008, published 2011).

Columns and labels:
[1] = tested on: FGF2-mediated extracellular matrix loss in RCS chondrocytes; experiment: Alcian blue staining of extracellular matrix in RCS chondrocytes; format: cell-based, rat; conditions: FGF2 5 ng/ml, NF449 20 μM, 72 hours, FIG. 2a
Protocol: For Alcian blue staining, growing RCS cultures were treated with FGF2 (5 ng/ml) alone or in the presence of NF449 (20 μM) for 72 hours, fixed with 4% paraformaldehyde and stained for 30 minutes with Alcian blue. For quantification of the FGF2/FGFR3-mediated extracellular matrix loss, RCS chondrocytes were treated with FGF2 (5 ng/ml) and NF449 (20 μM) for 72 hours in the presence of 10 μCi/ml of [^35S]sulfate (Perkin Elmer, Boston, Mass.). Following the cultivation period, cells were harvested and the incorporated radioactivity was determined by liquid scintillation.
Apart from the growth arrest, aberrant FGFR3 signaling in chondrocytes leads to the loss of their extracellular matrix, rich in sulfated proteoglycans, due to inhibition of matrix synthesis as well as degradation of the existing matrix. The inventors therefore evaluated whether NF449 rescues the extracellular matrix loss induced by FGFR3 activation. […] Similar to previous findings, this matrix was lost after the 72-hours of FGF2 treatment. […] To further confirm this observation, cells were incubated with [^35S]sulfate for 72 hours to label the extracellular matrix and determined the effect of FGF2 and NF449 on the cell-bound radioactivity.

[2] = molecular target: T1, recombinant tyrosine kinase (TK) domain of FGFR3 (Homo sapiens, UniProt P22607); experiment: Cell-free FGFR3 kinase assay with STAT1 as substrate; format: biochemical; conditions: for effect on FGFR3 kinase activity (in words): added directly to the kinase reaction, FIG. 4
T1 construct: recombinant tyrosine kinase (TK) domain of FGFR3 (Glu-322-Thr-806; Cell Signaling); purchased Cell Signaling
Protocol: FIG. 4, in accordance with an embodiment herein, depicts 4,4′,4″,4′″-[carbonyl-bis[imino-5,1,3-benzenetriyl bis-{carbonylimino}]]tetrakis-{benzene-1,3-disulfonic acid} inhibits FGFR3 activity in a kinase assay. (a, b) Cell-free kinase assays were carried out as described herein, with recombinant tyrosine kinase (TK) domain of FGFR3 as a kinase, recombinant STAT1 as a substrate, and NF449 added directly to the kinase reaction. FGFR3-mediated phosphorylation of STAT1 was detected by WB with P-STAT1 (Y^701) antibody. The membrane was reprobed with FGFR3 and STAT1 antibodies to control for kinase and substrate quantity. The sample with ATP omitted serves as a negative control for the kinase reaction. Note the FGFR3-mediated phosphorylation of STAT1 is inhibited by 4,4′,4″,4′″-[carbonyl-bis[imino-5,1,3-benzenetriyl bis-{carbonylimino}]]tetrakis-{benzene-1,3-disulfonic acid}. The P-STAT1 and STAT1 signal was quantified by densitometry and expressed as a ratio between P-STAT1 and STAT1 signal for each given sample (b, lower graph). (c) The FGFR3 kinase assay was carried-out as described in (a) with 4,4′,4″,4′″-[carbonyl-bis[imino-5,1,3-benzenetriyl bis-{carbonylimino}]]tetrakis-{benzene-1,3-disulfonic acid}, 8,8′-[carbonylbis[imino-3,1-phenylenecarbonylimino{4-methyl-3,1-phenylene}carbonylimino]]bis-1,3,5-naphthalenetrisulfonic acid or 8,8′-[carbonylbis[imino-3,1-phenylene]]bis-{1,3,5-naphthalenetrisulfonic acid} added to the kinase reaction. Note the differential effects of 8,8′-[carbonylbis[imino-3,1-phenylenecarbonylimino{4-methyl-3,1-phenylene}carbonylimino]]bis-1,3,5-naphthalenetrisulfonic acid and 8,8′-[carbonylbis[imino-3,1-phenylene]]Bis-{1,3,5-naphthalenetrisulfonic acid} on the FGFR3-mediated phosphorylation of STAT1, which corresponds to their activity in the RCS growth-arrest experiment (lower graph). Data are an average from four wells with the indicated standard deviation. Statistically significant rescue of the growth arrest is indicated (Student's I-test; *-p<0.01).
OPM2 and KMS11 cells were lysed in ice-cold immunoprecipitation buffer (50 mM Tris-HCl pH 7.4, 150 mM NaCl, 0.5% NP-40, 1 mM EDTA, 25 mM NaF) supplemented with proteinase inhibitors and 10 mM sodium orthovanadate. Protein samples were resolved by SDS-PAGE and transferred onto a PVDF membrane. The following antibodies were used: Erk1/2, P-Erk1/2^T202/Y204, STAT1, P-STAT1^Y701 (Cell Signaling, Beverly, Mass.) and FGFR3 (Santa Cruz Biotechnology, Santa Cruz, Calif.). Western blotting signal was quantified by determining the integrated optical density (I.O.D.) of a given band using Scion Image software (Scion Corporation, Frederick, Mass.). Immunoprecipitations and FGFR3 kinase assays were performed as described. Briefly, the pRK7 vector encoding C-terminally FLAG-tagged K650E-FGFR3 was transfected into CHO cells using FuGENE6 reagent according to the manufacturer's protocol (Roche Applied Science, Indianapolis, Ind.). 48 hours after transfection, cells were treated with 20 ng/ml of FGF2 for 15 minutes and K650E-FGFR3 was immunoprecipitated from 800 μg of cell lysate protein using 4 μg of anti-FLAG antibody (Sigma-Aldrich, St. Louis, Mo.). Cells transfected with a plasmid encoding green fluorescent protein (pCCEY) serve as a negative control for the immunoprecipitation. Immunocomplexes were washed two times with kinase buffer (60 mM HEPES-NaOH pH 7.5, 3 mM MgCl2, 3 mM MnCl2, 3 μM Na3VO4, 1.2 mM dithiothreitol), and the kinase reactions were performed for 30 minutes at 30° C. in the presence of 2.5 μg of polyethylene glycol, 10 μM ATP, 300 ng of recombinant STAT1 (Active Motif, Carlsbad, Calif.) as a substrate, and NF449 added directly to the kinase reaction. Kinase assays utilizing recombinant tyrosine kinase (TK) domain of FGFR3 (Glu-322-Thr-806; Cell Signaling) were carried-out similarly, with 300 ng of kinase used in 50 μl reaction, and suramin, NF449 and NF023 added directly to the kinase reaction. […]

[3] = listed as 4,4′,4″,4′″-[carbonyl-bis[imino-5,1,3-benzenetriyl bis-{carbonylimino}]]tetrakis

T1 sequence (P22607 322-806): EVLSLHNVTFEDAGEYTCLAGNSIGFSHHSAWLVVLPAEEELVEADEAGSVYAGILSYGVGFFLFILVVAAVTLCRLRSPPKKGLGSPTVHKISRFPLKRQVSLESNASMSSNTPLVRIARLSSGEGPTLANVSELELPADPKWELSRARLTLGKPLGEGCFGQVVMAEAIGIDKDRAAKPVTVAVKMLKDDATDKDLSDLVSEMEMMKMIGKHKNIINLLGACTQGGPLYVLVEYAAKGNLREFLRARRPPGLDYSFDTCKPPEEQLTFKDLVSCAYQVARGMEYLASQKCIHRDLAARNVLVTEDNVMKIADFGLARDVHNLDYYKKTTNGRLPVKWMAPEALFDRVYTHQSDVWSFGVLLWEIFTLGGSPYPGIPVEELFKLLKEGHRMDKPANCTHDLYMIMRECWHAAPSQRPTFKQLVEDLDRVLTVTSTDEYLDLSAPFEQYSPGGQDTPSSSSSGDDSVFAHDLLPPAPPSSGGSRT

O=C(Nc1cc(C(=O)Nc2ccc(S(=O)(=O)O)cc2S(=O)(=O)O)cc(C(=O)Nc2ccc(S(=O)(=O)O)cc2S(=O)(=O)O)c1)Nc1cc(C(=O)Nc2ccc(S(=O)(=O)O)cc2S(=O)(=O)O)cc(C(=O)Nc2ccc(S(=O)(=O)O)cc2S(=O)(=O)O)c1 [NF449, 4,4′,4″,4′″-[carbonyl-bis[imino-5,1,3-benzenetriylbis-{carbonylimino}]]tetrakis-{benzene-1,3-disulfonic acid}]
FGF2-induced cellular shape change [1]: rescued
FGF2-mediated extracellular matrix loss, Alcian blue staining [1]: equaled that of the control cells
FGF2-mediated extracellular matrix loss, Alcian blue staining [1, 3]: reversed
inhibition of FGFR3 kinase activity ([2]; 0.1-30 μM range, FIG. 4b): some inhibition of FGFR3 kinase activity at all concentrations
FGFR3-mediated tyrosine phosphorylation of STAT1 ([2]; 5-30 μM NF449 concentration range, FIG. 4a): inhibited at all concentrations
concentration necessary to achieve more than 50% inhibition of FGFR3 kinase activity ([2]; FIG. 4b, densitometry P-STAT1/STAT1): ≥ 2 µM
effect on FGFR3 kinase activity (in words) [2]: inhibited the FGFR3-mediated tyrosine phosphorylation of STAT1
effect on FGFR3 kinase activity (in words) [2, 3]: inhibited
concentration range inhibiting FGFR3 kinase activity ([2]; comparison with SU5402): 2 to 20 µM
